Assay results from patent EP0738149B1 (priority 1994, dated 1995).

Legend:
[1] = Neurotoxicity in rats (positional sense test and gait stance test), p.o.; conditions: rat, in vivo, po
Procedure: (§1) Neurotoxicity of the claimed agents was also assessed in mice (i.p. administration) by the rotorod ataxia test and/or in rats (p.o. administration) by positional sense test and gait stance test. […] The term quantitating the neurotoxicity is the medial neurological toxic dose (TD50), was determined in the above tests.

[2] = system: rats; assay: as above; conditions: rats, p.o.; Table 16
Procedure: as §1

[3] = in vivo; conditions: mouse, in vivo, ip
Procedure: as §1

[4] = system: mice; assay: in vivo
Procedure: as §1

[5] = system: mechanically dissociated neonatal rat cerebellum; assay: Reversal of NMDA induced cell death in cultures of neonatal rat cerebellum; format: cell-based; conditions: for SURVIVING CELL IN CULTURE: relative to control (100%); for PERCENT PROTECTION: Cell Survival minus the NMDA effect; for EFFECTIVE PROTECTION: X x 100/70
Outline: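 Cerebellar cells from 6–7-day rat pups on poly-L-lysine at 200/mm^2, grown 3 days (37°C, 5% CO2), then compound with NMDA challenge (1mM, 3 hours); spermine (0.01 micromoles) plus NMDA as positive control, duplicates. Survival by phase contrast and trypan blue after 24 hours; effective protection = percent protection ×100/70.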

[6] = system: hypoxic rat; assay: Amphetamine-induced stereotype behavior in hypoxic rat, Experiments 2A and 2B; format: in vivo; conditions: for total number of lateral head movements per minute: Exp 2A, 0.5mg/kg daily 29 days, D-amphetamine sulfate 0.5mg/kg s.c., 45-60 min after, Mean ± SEM; for lateral head movements: Exp 2B, 0.3mg/kg daily i.p. 14 days, 12 month-old rats
Procedure: Experiment 2A. Wistar male rats, 15-19 month-old, were exposed to a single hypoxic episode as described above. […] Rats pretreated for 29 days with daily doses of the test drugs (0.5mg/kg), received a sub-cutaneous (s.c.) injection of D-amphetamine sulfate at a dose of 0.5mg/kg. D-amphetamine is known to cause an enhancement of the effects of CNS dopamine by a mechanism involving dopamine release, and blockage of its uptake and its metabolism by MAO. The behavioral manifestation of amphetamine action is a stereotypic pattern of lateral head movements.
Counts of lateral head movements were taken over two successive intervals of 1 min each, 45-60 min after the injection of amphetamine and then averaged.
Experiment 2B. […] The drugs were given by i.p. injection. • 3) Duration of the treatment: 14 days.

[7] = system: hypoxic rat; assay: Passive avoidance test in hypoxic rat, Experiment 3A; format: in vivo; conditions: Exp 3A, day 13 of drug treatment 0.5mg/kg/Day, Mean ± SEM; for latency of response, 48h after electroshock: maximum 300 seconds
Procedure: Experiment 3A: Wistar male rats, 15-19 month-old, were exposed to a single hypoxic episode as described above. […] The passive avoidance test was performed on day 13 after initiation the drug treatment. The apparatus consisted of a lit chamber that can be separated from a dark chamber by a sliding door. At training, a rat is placed in the lit chamber for 30 seconds, then the door is opened. The rat moves to the dark chamber after a short delay - the latency, that is recorded. Upon entry into the dark chamber, the door is shut closed and a 0.3-mA footshock is delivered for 3 seconds by a Grass S-88 stimulator. Retention of the experience is determined after 48 hours by repeating the test and recording the latency to an arbitrary maximum of 300 seconds. Longer latencies are ascribed to retention of memory and improved cognition.

[8] = system: hypoxia-lesioned rats; assay: Water maze working memory test in hypoxia-lesioned rats, Experiment 3B; format: in vivo, rat; conditions: 0.5mg/kg/day 60 days, ±SEM
Text: The apparatus used consists of a circular water tank 160cm in diameter filled with water to a depth of 38cm. The water was made cloudy by the addition of milk powder. A clear Plexiglass 15cm platform, supported by a movable stand rest on the bottom of the tank was submerged to a depth of 2cm from the water surface. Normally a swimming rat cannot perceive the location of the platform but it may recall it from a previous experience and training, unless it suffers from some memory impairment. The time taken to locate the platform is measured in seconds and referred to as the latency. During the experiment all orientational cues such as ceiling lights etc. remained unchanged. Longer latencies are observed with rats with some impairment to their memory.
Each rat was given two trails a day for four days, entering the pool from the same point of entry each day. The position of the platform was changed daily to one of four predetermined positions. Each rat was tested twice each day over the four days, referred to as runs 1 and 2 on sessions I-IV. Initially the rat was placed on the platform for 60 seconds. It was then removed and placed at the point of entry and allowed a maximum of 120 seconds to locate the platform (run 1). The second run for that day followed 60 seconds later (run 2). In the second run the rat is expected to find the platform much sooner, having benefitted from its earlier experience. […] The average latency of run 1 in four sessions on four different days was then related to the corresponding parameter of run 2. The smaller the ratio of […], the better the short range learning score.
Table 8. […] The data are the latencies in seconds±SEM that it took a given group to locate a submerged and invisible platform the location of which was shifted from one session to the other. The time interval between sessions was one day, and that between successive runs was 60 seconds. (n=7-8 rats per group) TABLE 8

[9] = 0.005 µM + NMDA 1mM for 3 hours
[10] = 0.010 µM + NMDA 1mM for 3 hours
[11] = 0.100 µM + NMDA 1mM for 3 hours

SMILES	TD50 [1] [mg/kg]	RATS TD50 [2] [mg/kg]	SURVIVING CELL IN CULTURE [5, 9] [%]	PERCENT PROTECTION ([5]; 0.005 µM + NMDA) [%]	EFFECTIVE PROTECTION ([5]; 0.005 µM + NMDA) [%]	SURVIVING CELL IN CULTURE [5, 10] [%]	PERCENT PROTECTION ([5]; 0.010 µM + NMDA) [%]	EFFECTIVE PROTECTION ([5]; 0.010 µM + NMDA) [%]	SURVIVING CELL IN CULTURE [5, 11] [%]	PERCENT PROTECTION ([5]; 0.100 µM + NMDA) [%]	total number of lateral head movements per minute [6] [per minute]	lateral head movements [6]	latency of response, before electroshock [7] [s]	latency of response, 48h after electroshock [7] [s]	latency to locate submerged platform ([8]; Session I Run 1) [s]	latency to locate submerged platform ([8]; Session I Run 2) [s]	latency to locate submerged platform ([8]; Session II Run 1) [s]	latency to locate submerged platform ([8]; Session II Run 2) [s]	latency to locate submerged platform ([8]; Session III Run 1) [s]	latency to locate submerged platform ([8]; Session III Run 2) [s]	also measured
CC(=O)N[C@@H]1CCc2ccccc21 [Example 18, (R)-N-Acetyl-1-aminoindan]	> 500	>500	80	50	71	80	50	71	55	25	–	–	–	–	–	–	–	–	–	–	TD50 ([3]; MICE TD50): 75 mg/kg; MICE TD50 ([4]; mouse, in vivo, ip): 75 mg/kg; EFFECTIVE PROTECTION ([5]; 0.100 µM + NMDA): 36%; SURVIVING CELL IN CULTURE ([5]; 1.000 µM + NMDA 1mM for 3 hours): 47%; PERCENT PROTECTION ([5]; 1.000 µM + NMDA): 17%; EFFECTIVE PROTECTION ([5]; 1.000 µM + NMDA): 24%; SURVIVING CELL IN CULTURE ([5]; 5.000 µM + NMDA 1mM for 3 hours): 32%; PERCENT PROTECTION ([5]; 5.000 µM + NMDA): 2%; EFFECTIVE PROTECTION ([5]; 5.000 µM + NMDA): 3%
C#CCN(C)[C@H](C)Cc1ccccc1 [deprenyl]	–	–	–	–	–	–	–	–	–	–	76 ± 3	77 ± 3	53 ± 7	153 ± 37	42 ± 16	40 ± 17	42 ± 18	35 ± 16	32 ± 15	8 ± 2	latency to locate submerged platform ([8]; Session IV Run 1): 19 ± 6 s; latency to locate submerged platform ([8]; Session IV Run 2): 12 ± 4 s
N[C@@H]1CCc2ccccc21 [R-AI, (R)-1-aminoindan]	492	492	80	50	71	30	0	0	28	-2	108 ± 3	92 ± 3	53 ± 6	245 ± 33	50 ± 16	25 ± 12	25 ± 8	14 ± 3	19 ± 5	14 ± 3	latency to locate submerged platform ([8]; Session IV Run 1): 15 ± 5 s; latency to locate submerged platform ([8]; Session IV Run 2): 6 ± 2 s; TD50 [3]: 71 mg/kg; MICE TD50 ([4]; mice, i.p., Table 16): 71 mg/kg
